# According to patent US20150351390A1, “COMPOSITIONS AND METHODS FOR AUXIN-ANALOG CONJUGATION” (PIONEER HI-BRED INTERNATIONAL, INC., priority 2012, published 2015):
# Experiments:
# Soybean seeds = assay: Phytotoxicity evaluation during soybean germination; type: in vivo; details: 1 μM in germination media, 10 days
# Description: To evaluate the effect of synthetic auxin conjugates in plants, 2,4-D-Asp, 2,4-D-Glu, dicamba-Asp, and dicamba-Glu were synthesized (Irvine Chemistry Laboratory, Anaheim, Calif.) and tested for auxin effects during soybean germination.
# Asp and Glu conjugates of 2,4-D and dicamba were dissolved in a small quantity of Na2CO3 and ethanol, respectively, diluted in ddH2O to obtain 10 mM stock solution, and filter sterilized. Soybean seeds of a Pioneer elite germplasm were sterilized with chlorine gas as following: a) two layers of seeds were placed in a 100×25 mm plastic Petri dish; b) in an exhaust fume hood, seeds were placed into a glass desiccator with a 250 mL beaker containing 100 mL bleach (5% NaOC1) and 3.5 mL 12N HCl was slowly added to the beaker; c) the lid was sealed closed on the desiccator and the seeds sterilized for at least 24 hr.
# Sterilized soybean seeds were then imbibed in ddH2O under sterile conditions at 25° C. for 24 hours before germination test. For germination test, 6-8 imbibed seeds were placed on a 100×25 mm deep Petri dish plate containing 50 ml germination media supplemented with or without auxin herbicide conjugates. 1 L seed germination media contains 3.21 g GAMBORG B-5 basal medium (PhytoTech), 20 g sucrose, 5 g tissue culture agar, and is pH adjusted to 5.7. Media was autoclaved at 121° C. for 25 min and cooled to 60° C. before the addition of auxin conjugates. Germination was carried out in a Percival growth chamber at 25° C. under 18 hr light and 6 hr dark cycle at 90 to 150 μE/m2/s and grown for 10 days.
# [1] = system: wild-type Col-0 Arabidopsis; assay: Root growth inhibition by 2,4-D, wild-type Arabidopsis; type: in vivo, Arabidopsis thaliana; details: Non transgenic (Col-0)
# Description: Seeds of Arabidopsis ecotype Columbia (Col-0) and GH3 transgenic events were surface sterilized with 70% (v/v) ethanol for 5 minutes and 10% (v/v) bleach for 15 minutes. After being washed three times with distilled water, the seeds were incubated at 4° C. for 4 days. The seeds were then germinated on 1× Murashige and Skoog (MS) medium with a pH of 5.7, 3% (w/v) sucrose, and 0.8% (w/v) agar. After incubation for 3.5 days, the seedlings were transferred to the basal medium containing B5 vitamin, 3% (w/v) sucrose, […] MES (pH 5.7), 1.2% (w/v) agar, and filter sterilized auxin herbicides 2,4-D or dicamba was added to the media at 60° C. The concentrations of 2,4-D were 0 μM, 0.1 μM, 0.5 μM, 0.7 μM, and 1.0 μM. The concentrations of dicmaba were 0 μM, 1.0 μM, 5.0 μM, 7.0 μM, and 10 μM. […]
# After 6 days on media with various concentrations of 2,4-D or dicamba, the length of the primary root was measured. […]
# Transgenic Arabidopsis lines overexpressing SEQ ID NO:3 were generated and evaluated for 2,4-D herbicide response as described in Example 5. […] Root length of 8 plants per transgenic line was measured and the average was compared to untreated seedlings within the same genetic background.
# [2] = system: Arabidopsis ecotype Col-0 plant; assay: Arabidopsis response to spot infiltrated auxins and conjugates; type: in vivo, Arabidopsis thaliana; details: 50, 150, and 500 μM; result in words
# Description: The effect of auxin conjugates was assessed using Arabidoposis (Arabidopsis thialiana) ecotype Col-0 plant. Prior to studies utilizing the auxin conjugates, levels of analytical grade (98%+pure) IAA, 2,4-D and dicamba in solution were applied at various concentrations directly to developmentally similar leaves of 20-23 day old Arabidopsis seedlings by needleless syringe spot infiltration methodology, in order to determine range of auxinic response and severity. Phenotypes were documented relative to control at 1 day post-spot infiltration and subsequently every other day, up to nine days post treatment. Three concentrations were chosen based on reproducibility, and conjugated forms were then studied with 4 or more replicate treatments for each, along with appropriate negative controls (H2O and 10% EtOH).
# Examples 9 and 10 utilized a spot infiltration method for the delivery of an herbicide directly to leaves of a plant. The method generally allows for the directed delivery of a variety of agents to a localized area of a plant, e.g. localized region of leaves, for screening or assessment purposes, e.g. to quickly assess the response of a plant to the agent. As used in the foregoing examples, the spot infiltration method was used to introduce specific herbicides or specific conjugates of the herbicides to seedling plant leaves. Following introduction of the herbicide or the appropriate conjugate, plants were observed daily for nine days for characteristics of epinasty, trifoliate leaf curly, chlorosis, and new growth recovery.
# Briefly, a solution of the desired agent is prepared of the desired agent, e.g. as described above in Example 10, solutions (5% EtOH) of 1, 2.5 and 5 mM IAA. The solution is then drawn into a 1 mL BD™ slip-tip syringe, bulk, non-sterile syringe (e.g. Becton, Dickinson and Company, Product No. 301025) with 100 μL markings. The desired volume is then applied to the leaf, e.g. as described in Examples 9 and 10, with the tip of the syring against the leaf and positive pressure applied to the syringe plunger. Sufficient pressure is applied in order to infuse the area beneath the syringe opening, but not so much pressure as to cause a visible-to-the-eye puncture or hole to form in the leaf. Some run-off of solution around the syringe opening is expected. In the foregoing examples, two spots were applied to each of two leaves per seedling for soybean plants. […] In soybean, both spots per leaf were at the distal portion of the leaf about 1-2 cm apart. When the method was applied to Arabidopsis, two developmentally intermediate aged leaves were chosen per plant, and one spot infiltration was carried out per leaf.
# Generally, for Arabidopsis, the two leaves were chosen from opposite sides of rosette. In general, the spot infiltration method is carried out on younger plants in order to minimize experimental footprint and to maintain developmental uniformity. However, the method is not limited to use on young plants and can be easily applied to older plants as determined by the goals of a particular experiment.
smiles,measurement,setting,value
"O=C(O)COc1ccc(Cl)cc1Cl [2,4-D, 2,4-dichlorophenoxyacetic acid]",Soybean seed germination and growth,Soybean seeds,seed germination was arrested
same,"Percentage of the average root length compared with 0 nM 2,4-D treatment","[1]; 10 nM 2,4-D",77%
same,"Percentage of the average root length compared with 0 nM 2,4-D treatment","[1]; 100 nM 2,4-D",58%
same,"Phenotype, Arabidopsis",[2],increased auxinic response ranging from mild to more extreme epinasty
